US11649209B2, “Crystalline freebase forms of a biphenyl compound” (THERAVANCE BIOPHARMA R&D IP, LLC, priority 2009, dated 2023)
In brackets after ≈: the same amount, converted by molar mass. Read-outs that look alike come from different tables or passages of the source.

Key:
[1] = Micronization, particle size by laser light diffraction; format: physicochemical
Excerpt: Samples of the crystalline freebase Form III were micronized using either an APTM 4″ micronizer and the particle size determined buy laser light diffraction.

[2] = Storage stability of micronized material (PXRD, DSC); format: physicochemical; conditions: 3 months at 40° C./20% RH, 50° C./ambient humidity
Description: For reference, the particle size of the input crystalline freebase Form III was X10=5.58 μm X50=18.2 μm, and X90=49.7 μm. Micronization yielded particles in the respirable size range.
There was an additional small thermal event in the micronized material at 87° C., likely due to crystallization.

[3] = Solution stability; format: physicochemical
Description: The crystalline freebase Form III solutions are stable in pH 4 and pH 6 buffers for up to 7 days at 50° C. or exposed to light. The solutions are stable in water and saline for 7 days at room temperature, protected from light.

[4] = Exposure to atmospheric moisture, elevated temperature and humidity; format: physicochemical
[5] = pH solubility; format: physicochemical; conditions: for solubility: thermodynamic from solid
Description: Solubility in water is 0.66 mg/mL with a natural pH of 8.9.

[6] = Gravimetric vapor sorption assessment; format: physicochemical
Description: Gravimetric vapor sorption (GVS) studies were performed using a Surface
Measurements System DVS-1 instrument for generation of full sorption isotherm using water vapor perfusion at 25° C. A sample size of approximately 7 mg was placed into a clean and dry tared sample mesh pan and weighed using the internal balance. The target relative humidity (RH) ranges were from 30% to 90%, then 90% to 0% and 0% to 30% with 10% steps. The point of equilibrium was automatically determined using a 0.02 dm/dt asymptote setting.

[7] = molecular target: T1, hM3 receptor (Homo sapiens, UniProt P20309); assay: Blockade of agonist-mediated calcium release via FLIPR; format: cell-based; conditions: CHO cells stably expressing the hM3 receptor
T1 construct: expressed in transfected cells
Excerpt: Muscarinic receptor subtypes (M1, M3 and M5 receptors), which couple to Gq proteins, activate the phospholipase C (PLC) pathway upon agonist binding to the receptor. As a result, activated PLC hydrolyzes phosphatyl inositol diphosphate (PIP2) to diacylglycerol (DAG) and […] (IP3), which in turn generates calcium release from intracellular stores, i.e., endoplasmic and sarcoplasmic reticulum. The FLIPR (Molecular Devices, Sunnyvale, Calif.) assay capitalizes on this increase in intracellular calcium by using a calcium sensitive dye (Fluo-4AM, Molecular Probes, Eugene, Oreg.) that fluoresces when free calcium binds. This fluorescence event is measured in real time by the FLIPR, which detects the change in fluorescence from a monolayer of cells cloned with human M1 and M3, and chimpanzee M5 receptors. Antagonist potency can be determined by the ability of antagonists to inhibit agonist-mediated increases in intracellular calcium. […]
To determine antagonist potency, the dose-dependent stimulation of intracellular Ca^2+ release for oxotremorine is first determined so that antagonist potency can later be measured against oxotremorine stimulation at an EC90 concentration. […]
The change of fluorescence is expressed as maximum fluorescence minus baseline fluorescence for each well. […]

[8] = molecular target: T2, M3 muscarinic receptor subtype (Homo sapiens, UniProt P20309); assay: Radioligand binding assay ([3H]-NMS displacement) on muscarinic receptor subtypes; conditions: this or a similar assay
T2 construct: expressed in transfected cells
Description: CHO cell lines stably expressing cloned human hM1, hM2, hM3 and hM4 muscarinic receptor subtypes, respectively, were grown to near confluency in medium consisting of HAM's F-12 supplemented with 10% FBS and 250 μg/mL Geneticin. The cells were grown in a 5% CO2, 37° C. incubator and lifted with 2 mM EDTA in dPBS. Cells were collected by 5 minute centrifugation at 650×g, and cell pellets were either stored frozen at −80° C. or membranes were prepared immediately. For membrane preparation, cell pellets were resuspended in lysis buffer and homogenized with a Polytron PT-2100 tissue disrupter (Kinematica AG; 20 seconds×2 bursts). Crude membranes were centrifuged at 40,000×g for 15 minutes at 4° C. […] The protein concentration of the membrane suspension was determined by the method described in Lowry, O. et al.,Journal of Biochemistry 193:265 (1951). […]
Radioligand binding assays were performed in 96-well microtiter plates in a total assay volume of […]. […] Filter plates were rinsed three times with wash buffer (10 mM HEPES) to remove unbound radioactivity. […] The plates were then counted in a PerkinElmer Topcount liquid scintillation counter (PerkinElmer Inc., Wellesley, Mass.). Binding data were analyzed by nonlinear regression analysis with the GraphPad Prism Software package (GraphPad Software, Inc., San Diego, Calif.) using the one-site competition model. […]

[9] = test system: MCh response; assay: Rat Einthoven assay (bronchoprotection against MCh); format: in vivo; conditions: for ID50: 1.5 hrs post-dose, inhalation
Description: All test compounds are diluted in sterile water and are dosed via the inhalation route (IH). […] Each test compound solution is nebulized over a 10 minute time period in a pie shaped dosing chamber capable of holding six rats. At predetermined time points after inhalation of compound, the Einthoven assay is performed. […] The jugular vein is catheterized with saline filled polyethylene catheters (PE-50) and used to infuse MCh. The trachea is then dissected and cannulated with a 14G needle and used for rat ventilation during pulmonary evaluation. Once surgery is complete, rats are ventilated using a piston respirator set at a stroke volume of 1 ml/100 g body weight but not exceeding 2.5 ml volume, and at a rate of 90 strokes per minute. The changes in pressure that occur with each breath are measured. […] The MCh is infused for 2.5 minutes from a syringe pump at a rate of 2 mL/kg/min. The animals are euthanized upon completion of the studies. Changes in ventilation pressure (cm H2O) in treated animals are expressed as % inhibition of MCh response relative to control animals.

[10] = test system: pilocarpine-induced salivation; assay: Rat antisialagogue assay; format: in vivo; conditions: evaluated at 1, 6 and 24 hr post-dose
Description: Rats (Sprague-Dawley, male, 250-350 g) are dosed, anesthetized and cannulated as described for Assay 3. At predetermined time points and after surgery, animals are placed on their dorsal side at a 20° incline with their head in a downward slope. A pre-weighed gauze pad is inserted in the animal's mouth and the muscarinic agonist pilocarpine (PILO) (3 mg/kg, iv.) is administered. Saliva produced during 10 minutes post-PILO is measured gravimetrically by determining the weight of the gauze pad before and after PILO. Antisialagogue effects are expressed as % inhibition of salivation relative to control animals.
The rat antisialagogue assay was developed to assess systemic exposure and calculate the lung selectivity index (LSI) of test compounds. The standard, tiotropium, was evaluated in this model at 1, 6, and 24 hr post-dose. […] This finding is consistent with the peak effects observed in the Einthoven assay.
This model is a modified version of the procedure described in Rechter, “Estimation of anticholinergic drug effects in mice by antagonism against pilocarpine-induced salivation” Ata Pharmacol Toxicol 24:243-254 (1996). The mean weight of saliva in vehicle-treated animals, at each pre-treatment time, is calculated and used to compute % inhibition of salivation, at the corresponding pre-treatment time, at each dose.

[11] = input material before micronization

T1 sequence (P20309 whole entry): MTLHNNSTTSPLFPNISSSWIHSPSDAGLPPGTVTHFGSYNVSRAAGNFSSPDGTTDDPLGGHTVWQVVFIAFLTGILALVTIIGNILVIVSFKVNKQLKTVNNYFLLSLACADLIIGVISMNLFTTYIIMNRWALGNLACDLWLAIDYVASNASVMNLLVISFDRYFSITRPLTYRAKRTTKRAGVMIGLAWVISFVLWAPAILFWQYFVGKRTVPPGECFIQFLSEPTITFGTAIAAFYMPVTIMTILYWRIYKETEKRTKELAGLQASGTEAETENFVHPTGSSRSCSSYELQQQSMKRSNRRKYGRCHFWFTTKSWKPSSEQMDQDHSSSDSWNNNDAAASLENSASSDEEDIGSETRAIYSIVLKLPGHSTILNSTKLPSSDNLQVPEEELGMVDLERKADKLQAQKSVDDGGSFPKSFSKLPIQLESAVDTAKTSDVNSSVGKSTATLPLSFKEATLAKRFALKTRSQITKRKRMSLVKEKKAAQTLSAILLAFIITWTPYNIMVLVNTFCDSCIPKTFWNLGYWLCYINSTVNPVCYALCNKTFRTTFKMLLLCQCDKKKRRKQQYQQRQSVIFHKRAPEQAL
T2 sequence (P20309 whole entry): as above

**Q.** For `CN(CCN1CCC(OC(=O)Nc2ccccc2-c2ccccc2)CC1)C(=O)c1ccc(CN2CCC(C(N)=O)CC2)cc1` [Form III, Biphenyl-2-ylcarbamic Acid 1-(2-{[4-(4-Carbamoylpiperidin-1-ylmethyl)benzoyl]methylamino}ethyl)piperidin-4-yl Ester], which “Particle size X10” value [1, 11] is on record?
**A.** 5.58 μm

**Q.** What about the “Particle size X50” value [1, 11] of the same compound?
**A.** 18.2 μm

**Q.** And the “Particle size X90” value [1, 11]?
**A.** 49.7 μm

**Q.** And the “Particle size X10” value ([1]; micronized material)?
**A.** 1.27 μm

**Q.** And the “Particle size X50” value ([1]; micronized material)?
**A.** 2.69 μm

**Q.** What about the “Particle size X90” value ([1]; micronized material) of the same compound?
**A.** 5.25 μm

**Q.** And the “change in PXRD after storage” value ([2]; 40° C./75% RH (uncapped))?
**A.** No changes were observed

**Q.** And the “amorphous content by DSC after storage” value ([2]; 40° C./75% RH naked)?
**A.** no evidence of amorphous content

**Q.** And the “solution stability in water and saline” value ([3]; 7 days at room temperature, protected from light)?
**A.** stable

**Q.** And the “solution stability in buffers” value ([3]; pH 4 and pH 6 buffers, up to 7 days at 50° C. or exposed to light)?
**A.** stable

**Q.** And the “stability upon exposure to elevated temperature and humidity” value [4]?
**A.** stable

**Q.** What about the solubility ([5]; aqueous buffer, in media up to pH 7, read-out: Solubility) of the same compound?
**A.** > 2000 µg/mL

**Q.** What about the “natural pH in water” value ([5]; at solubility in water) of the same compound?
**A.** 8.9

**Q.** What about the solubility ([5]; simulated lung fluid, fassgf or other biorelevant, no change between 4 hour and 24 hour measurements, read-out: Solubility in simulated lung fluid) of the same compound?
**A.** 460 µg/mL (≈ 770 µM)

**Q.** And the solubility ([5]; water, pH 8.9, water, natural pH of 8.9, read-out: Solubility in water)?
**A.** 660 µg/mL (≈ 1100 µM)

**Q.** And the reversible water uptake ([6]; between 0 and 90% RH at 25° C.)?
**A.** < 2 % w/w

**Q.** And the reversible water uptake ([6]; between 0 and 90% relative humidity at 25° C.)?
**A.** < 2 % wt/wt

**Q.** What does the source list for `CN(CCN1CCC(OC(=O)Nc2ccccc2-c2ccccc2)CC1)C(=O)c1ccc(CN2CCC(C(N)=O)CC2)cc1` [compound of formula I, biphenyl-2-ylcarbamic acid 1-(2-{[4-(4-carbamoylpiperidin-1-ylmethyl)benzoyl]methylamino}ethyl)piperidin-4-yl ester]?
**A.** Ki [7]: < 5 nM; Ki [8]: < 5 nM

**Q.** For `C[N+]1(C)CCC(OC(=O)C(O)(c2ccccc2)C2CCCC2)C1` (centres unmarked) [glycopyrrolate], which ID50 [9] is on record?
**A.** 15 µg/mL

**Q.** For `CC(C)[N+]1(C)[C@@H]2CC[C@H]1C[C@@H](OC(=O)C(CO)c1ccccc1)C2` (some centres unmarked) [ipratropium], which “fold less potent 6-hr post-dose compared to 1.5 hr potency” value ([9]; 10 and 30 μg/ml, 6 hr post-dose) is on record?
**A.** about 3 fold

**Q.** And the ID50 [9]?
**A.** 4.4 µg/mL

**Q.** Which ID50 [9] does the source give for `C[N+]1(C)[C@@H]2C[C@@H](OC(=O)C(O)(c3cccs3)c3cccs3)C[C@H]1[C@@H]1O[C@@H]12` [tiotropium] here?
**A.** 6 µg/mL

**Q.** What about the “fold more potent at 6 hr and 24 hr compared to 1.5 hr potency” value ([9]; 6 hr and 24 hr post-dose) of the same compound?
**A.** about 2 fold

**Q.** And the “time of peak bronchoprotection post-dose” value ([9]; slow onset of effect)?
**A.** 6 h

**Q.** And the “time post dose of highest potency at inhibiting pilocarpine-induced salivation” value [10]?
**A.** 6 h
